How the values were obtained:
[1] = tested on: Proteus vulgaris (MB-838); assay: disc-plate assay using Proteus vulgaris; assay type: cell-based; details: read-out: concentration giving a 25 mm. zone
[2] = tested on: gram-negative and gram-positive organisms; assay: in vivo activity against infections (in words); set-up: species or system mice
Experimental: Methods: The method employed in this characterization is as follows: Female white Swiss mice, average weight 20-23 grams, were infected intraperitoneally with 3-20 times the number of organisms calculated to be lethal for 50% of the infected control animals (3-20 LD50 doses). At the time of infection and again 6 hours later, therapy was given by the designated route. Controls of the virulence of the culture and the toxicity of the antibiotic for uninfected mice were included in the tests. Seven days after infection the test was considered complete and the amount of the antibiotic (I) that would be required to protect 50% of the infected and treated animals was calculated by the method of Knudsen and Curtis: J. Amer. Stat. Assoc. Vol. 42: page 282 (1947).
The method employed in these studies is the same as described above with regard to the in vivo characterization of 810A.

cephalosporinases = assay: resistance to cephalosporinases / enzymatic degradation; assay type: biochemical

SMILES: COC(=Cc1ccc(OS(=O)(=O)O)cc1)C(=O)OCC1=C(C(=O)O)N2C(=O)[C@](NC(=O)CCC[C@@H](N)C(=O)O)(OC)[C@H]2SC1 [Ic, 7β-(D-5-amino-5-carboxyvaleramido)-3-(α-methoxy-p-sulfooxycinnamoyloxymethyl)-7-methoxy-3-cephem-4-carboxylic acid]
- IC (25 mm zone) [1]: 88 µg/mL
- effectiveness against infections ([2]; administered intraperitoneally): effective against a variety of gram-negative and gram-positive infections
- oral protection against infections ([2]; given orally): protects against infections due to Proteus vulgaris
- resistance to enzymatic degradation compared with cephalosporin C (cephalosporinases): more resistant to enzymatic degradation than cephalosporin C
